Experimental findings from article PMC6094957, “BdorOR88a Modulates the Responsiveness to Methyl Eugenol in Mature Males of Bactrocera dorsalis (Hendel)” (Frontiers in Physiology, 2018) are described below.

The EC50 is the midpoint of the concentration-response curve. The low end stands for an effect from little substance, the high end for a need for much substance.

Each structure is given as a SMILES string.

One test addresses T1, BdorOR88a/BdorOrco (Bactrocera dorsalis, UniProt A0A0G2UKI5).
T1 construct: gene OR88a; full-length OR88a (1,245 nt, 414 aa) co-expressed with BdorOrco from pCS2+ cRNAs in Xenopus laevis oocytes; with Odorant receptor coreceptor
T1 sequence (A0A0G2UKI5 1-414): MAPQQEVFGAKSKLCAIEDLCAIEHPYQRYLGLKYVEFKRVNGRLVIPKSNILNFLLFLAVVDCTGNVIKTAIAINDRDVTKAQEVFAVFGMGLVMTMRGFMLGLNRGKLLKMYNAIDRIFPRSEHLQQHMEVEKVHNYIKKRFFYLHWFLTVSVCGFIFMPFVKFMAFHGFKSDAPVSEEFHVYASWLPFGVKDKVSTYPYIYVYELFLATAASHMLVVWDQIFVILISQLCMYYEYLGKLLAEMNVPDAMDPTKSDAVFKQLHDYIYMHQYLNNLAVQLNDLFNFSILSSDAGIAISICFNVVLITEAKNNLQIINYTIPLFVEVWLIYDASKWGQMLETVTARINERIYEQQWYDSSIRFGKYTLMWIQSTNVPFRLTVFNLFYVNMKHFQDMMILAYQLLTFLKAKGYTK
T1 sequence (B2Z9Z0 1-473 partner): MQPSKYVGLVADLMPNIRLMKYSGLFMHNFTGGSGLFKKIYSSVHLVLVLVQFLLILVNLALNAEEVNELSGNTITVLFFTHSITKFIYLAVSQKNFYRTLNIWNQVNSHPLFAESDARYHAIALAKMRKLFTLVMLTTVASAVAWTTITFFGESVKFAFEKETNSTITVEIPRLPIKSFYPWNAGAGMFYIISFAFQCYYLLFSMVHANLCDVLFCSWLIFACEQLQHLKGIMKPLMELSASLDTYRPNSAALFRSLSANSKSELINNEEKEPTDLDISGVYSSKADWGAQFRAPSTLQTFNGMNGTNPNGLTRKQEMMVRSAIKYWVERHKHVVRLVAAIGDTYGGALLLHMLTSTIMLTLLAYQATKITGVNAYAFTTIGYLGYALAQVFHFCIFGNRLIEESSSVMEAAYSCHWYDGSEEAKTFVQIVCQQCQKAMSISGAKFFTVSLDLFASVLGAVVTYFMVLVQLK
In words: two-electrode voltage clamp, Xenopus oocytes. The format is cell-based. The source says:
two-electrode voltage clamp, Xenopus oocytes on BdorOR88a/BdorOrco | half the maximal effective concentration
Background: Two-electrode voltage clamp is typically applied to oocytes expressing channels or transporters.

Another test addresses T2, BdorOR63a-1/BdorOrco (Bactrocera dorsalis, UniProt A0A0G2UMW5).
T2 construct: gene OR63a-1; full-length OR63a-1 (1,248 nt, 415 aa) co-expressed with BdorOrco from pCS2+ cRNAs in Xenopus laevis oocytes; with Odorant receptor coreceptor
T2 sequence (A0A0G2UMW5 1-415): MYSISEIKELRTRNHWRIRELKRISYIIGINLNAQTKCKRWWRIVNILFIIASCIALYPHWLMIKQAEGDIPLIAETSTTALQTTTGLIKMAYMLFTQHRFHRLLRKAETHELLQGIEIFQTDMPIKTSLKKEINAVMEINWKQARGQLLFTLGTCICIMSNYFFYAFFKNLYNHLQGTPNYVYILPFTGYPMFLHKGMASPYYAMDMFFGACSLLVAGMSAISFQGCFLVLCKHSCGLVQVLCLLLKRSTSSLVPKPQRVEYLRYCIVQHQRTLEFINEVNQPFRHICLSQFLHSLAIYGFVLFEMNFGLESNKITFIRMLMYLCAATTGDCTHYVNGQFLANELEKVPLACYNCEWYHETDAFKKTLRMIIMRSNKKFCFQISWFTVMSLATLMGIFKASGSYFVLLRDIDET
T2 sequence (B2Z9Z0 1-473 partner): T1 sequence (B2Z9Z0 1-473 partner)
The test can be described thus: two-electrode voltage clamp, Xenopus oocytes. The class given is cell-based. The conditions noted are these: weak response at 1 × 10^-3 M ME; co-expressed BdorOrco; holding potential -80 mV; Ringer's pH 7.6.

With `C=CCc1ccc(OC)c(OC)c1` [ME, methyl eugenol], the EC50 at BdorOR88a/BdorOrco worked out at 28.3 µM. Besides, the “current at 1 × 10^-3 M” value at BdorOR63a-1/BdorOrco is listed as ~ 30 nA.
